Assay results taken from article PMC3334838 (Chemistry & biology, 2012).

Assays:
RAW 264.7 cells = test: Osteoclast differentiation assay; format: cell-based, mouse
[1] = tested on: Rat-2 cells expressing c-Fes/v-Fps chimera; test: Soft-agar colony formation, Rat-2 fibroblasts transformed by c-Fes/v-Fps chimera; format: cell-based, rodent
Erk2 [2] = target: T1, Erk2 (Homo sapiens, UniProt P28482); test: Erk2 in vitro kinase assay; format: biochemical
Erk2 [3] = target: T1, Erk2; test: KINOMEscan displacement assay, Erk2; format: binding; conditions: 10 μM inhibitor
[4] = target: Hck-TMYF gatekeeper mutant (Homo sapiens, UniProt P08631, T333M/Y522F); format: cell-based
Hck-TMYF gatekeeper mutant, sequence (P08631 22-526 T333M/Y522F limits assumed): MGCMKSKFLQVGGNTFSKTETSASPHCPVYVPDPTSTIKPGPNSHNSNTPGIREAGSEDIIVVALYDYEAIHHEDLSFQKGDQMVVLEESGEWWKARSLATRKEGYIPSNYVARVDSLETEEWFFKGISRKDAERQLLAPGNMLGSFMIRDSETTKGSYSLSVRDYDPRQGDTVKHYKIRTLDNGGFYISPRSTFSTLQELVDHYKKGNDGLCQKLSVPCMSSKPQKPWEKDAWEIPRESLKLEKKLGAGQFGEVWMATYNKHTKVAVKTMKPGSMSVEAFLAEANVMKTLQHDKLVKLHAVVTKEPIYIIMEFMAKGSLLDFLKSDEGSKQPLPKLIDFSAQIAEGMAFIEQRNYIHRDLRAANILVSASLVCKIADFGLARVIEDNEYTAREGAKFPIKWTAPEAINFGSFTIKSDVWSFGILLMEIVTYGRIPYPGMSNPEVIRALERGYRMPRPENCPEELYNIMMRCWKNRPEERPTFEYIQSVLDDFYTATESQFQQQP

[5] = tested on: control Rat-2 cells expressing GFP alone; test: Growth of control Rat-2 cells in monolayer culture; format: cell-based, rodent
[6] = tested on: bone marrow-derived macrophages (BMM); test: Osteoclast differentiation assay; format: cell-based, mouse; conditions: M-CSF and RANKL
[7] = tested on: Rat-2 cells transformed by Hck-YF; test: Soft-agar colony formation, Rat-2 fibroblasts transformed by active Hck; format: cell-based, rodent
[8] = tested on: Rat-2 cells expressing c-Fes-L145P; test: Soft-agar colony formation, Rat-2 fibroblasts transformed by c-Fes-L145P; format: cell-based, rodent
Hck-YF = Hck-YF (Homo sapiens, UniProt P08631, Y522F); test: Kinase autophosphorylation in transformed Rat-2 cells by immunoblotting, Hck-YF; format: cell-based
Hck-YF, sequence (P08631 22-526 Y522F limits assumed): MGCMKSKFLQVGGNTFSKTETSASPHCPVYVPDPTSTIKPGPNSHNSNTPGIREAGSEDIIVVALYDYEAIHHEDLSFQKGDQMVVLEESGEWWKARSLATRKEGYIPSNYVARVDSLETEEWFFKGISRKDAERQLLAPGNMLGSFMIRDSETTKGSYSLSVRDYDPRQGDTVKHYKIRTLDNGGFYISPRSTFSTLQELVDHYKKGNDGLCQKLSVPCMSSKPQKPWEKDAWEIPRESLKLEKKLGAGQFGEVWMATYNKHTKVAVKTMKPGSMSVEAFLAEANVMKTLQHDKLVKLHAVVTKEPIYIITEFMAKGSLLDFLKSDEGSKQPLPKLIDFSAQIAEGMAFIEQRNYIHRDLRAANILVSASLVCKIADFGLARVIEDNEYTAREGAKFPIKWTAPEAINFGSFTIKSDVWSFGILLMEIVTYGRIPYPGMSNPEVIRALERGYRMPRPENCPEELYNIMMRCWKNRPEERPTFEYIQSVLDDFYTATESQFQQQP

[9] = Rat2, read-out: inhibition of soft-agar colony formation

T1 sequence (P28482 whole entry): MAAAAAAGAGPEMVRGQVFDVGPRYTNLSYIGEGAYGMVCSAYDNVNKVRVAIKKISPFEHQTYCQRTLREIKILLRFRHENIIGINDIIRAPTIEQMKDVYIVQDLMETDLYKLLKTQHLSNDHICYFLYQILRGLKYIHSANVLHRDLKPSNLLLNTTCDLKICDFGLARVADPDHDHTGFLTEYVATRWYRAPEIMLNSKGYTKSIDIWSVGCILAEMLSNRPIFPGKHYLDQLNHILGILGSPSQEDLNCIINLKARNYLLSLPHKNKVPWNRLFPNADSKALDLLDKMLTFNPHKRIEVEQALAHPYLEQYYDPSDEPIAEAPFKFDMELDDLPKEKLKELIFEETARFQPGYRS

SMILES | effect on osteoclast differentiation (RAW 264.7 cells; RAW 264.7, 1 μM or 10 μM) | inhibition at 0.1 µM [1, 9] | concentration giving complete inhibition of soft-agar colony formation ([1]; c-Fes/v-Fps) | potency towards Erk in an in vitro kinase assay (Erk2 [2]) | inhibition of osteoclast differentiation compared with BMM (RAW 264.7 cells; RAW 264.7, RANKL and VEGF) | displacement score for Erk2 (Erk2 [3]) | IC50 [4] | growth of control Rat-2 cells in monolayer culture ([5]; 100 nM) | reduction of growth of control Rat-2 cells expressing GFP alone ([5]; 1 μM, after 72 hrs) | growth of control Rat-2 cells expressing GFP alone ([5]; 3 μM) | IC50 values for inhibition of osteoclast differentiation (in words) [6] | inhibition of Hck-mediated soft-agar colony formation ([7]; 200 nM) | soft-agar colony growth ([7]; Hck transformants, 1 μM) | inhibition at 0.1 µM [8, 9] | soft-agar colony growth ([8]; c-Fes transformants, 1 μM) | concentration giving complete inhibition of soft-agar colony formation ([8]; c-Fes-L145P) | IC50 (Hck-YF)
Nc1[nH]nc2nnc(-c3c(-c4ccccc4)nn4ccccc34)cc12 [FR180204] | did not influence | – | – | – | – | – | – | – | – | – | – | – | – | – | – | – | –
COc1cc(N2CCC(N3CCN(C)CC3)CC2)ccc1Nc1ncc(Cl)c(Nc2ccccc2S(=O)(=O)C(C)C)n1 [TAE684] | – | > 50% | 400 nM | very low potency | Very similar results | 0.3 | 685 nM | only slightly reduced | 50% | completely abolished | submicromolar range | only minimal inhibition | Complete loss | > 50% | Complete loss | 600 nM | > 10000 nM
